Source: ChEMBL document CHEMBL1130766, “Phosphodiesterase inhibitory properties of losartan. Design and synthesis of new lead compounds” (Bioorg Med Chem Lett, 1998)

How the values were obtained:
Phosphodiesterase 3 [1] = target: T1, Phosphodiesterase 3 (Homo sapiens, UniProt Q14432+Q13370); experiment: Inhibition of guinea pig ventricular Phosphodiesterase 3 (PDE 3) at 200 uM; type: protein assay; conditions: Cavia porcellus, target entry is the homologue from another species
Phosphodiesterase 4 [2] = target: T2, Phosphodiesterase 4 (Homo sapiens, UniProt P27815+Q08499+Q07343+Q08493); experiment: Inhibitory effect in cAMP-specific Phosphodiesterase 4 (PDE 4) isolated from guinea pig ventricular tissue.; type: protein assay, Cavia porcellus; conditions: target entry is the homologue from another species
Phosphodiesterase 3 [3] = target: T1, Phosphodiesterase 3; experiment: Inhibitory effect in cGMP-inhibited Phosphodiesterase 3 (PDE 3) isolated from guinea pig ventricular tissue.; type: protein assay, Cavia porcellus; conditions: target entry is the homologue from another species
Phosphodiesterase 4 [4] = target: T2, Phosphodiesterase 4; experiment: Inhibition of guinea pig ventricular Phosphodiesterase 4 (PDE 4) at 200 uM; type: protein assay; conditions: Cavia porcellus, target entry is the homologue from another species
Phosphodiesterase 3 [5] = target: T1, Phosphodiesterase 3; experiment: Inhibition of guinea pig ventricular Phosphodiesterase 3 (PDE 3); type: protein assay, Cavia porcellus; conditions: target entry is the homologue from another species

inhibition (Phosphodiesterase 3 [1]) [%] | IC50 (Phosphodiesterase 4 [2]) [µM] | IC50 (Phosphodiesterase 3 [3]) [µM] | inhibition (Phosphodiesterase 4 [4]) [%] | IC50 (Phosphodiesterase 3 [5]) [µM] | SMILES
15 | 42 | – | – | – | CCCCN(Cc1ccccc1-c1ccccc1)c1nc2c3c(ccc2s1)CCCC3
– | 3.8 | 2.4 | – | – | CCCc1nc(SCc2ccc(-c3ccccc3-c3nn[nH]n3)cc2)c2cc(C)ccc2n1
– | 21 | 24 | – | – | CCc1nc(NCc2ccc(-c3ccccc3-c3nn[nH]n3)cc2)c2ccccc2n1
50 | – | – | 48 | – | CCCCN(Cc1ccc(-c2ccccc2-n2ncnn2)cc1)c1nc2nc3ccccc3n2s1
15 | 107 | – | – | – | CCN(Cc1ccccc1-n1ncnn1)c1nc2nc3ccccc3n2s1
– | 2.9 | 8 | – | – | CCCCc1nc(SCc2ccc(-c3ccccc3-c3nn[nH]n3)cc2)c2ccccc2n1
– | 3.8 | 6.8 | – | – | CCCc1nc(SCc2ccc(-c3ccccc3-c3nn[nH]n3)cc2)c2ccccc2n1
41 | 48 | – | – | – | CCN(Cc1ccccc1-c1ccccc1)c1nc2nc3ccccc3n2s1
– | 7.9 | 5.4 | – | – | CCCCc1nc(OCc2ccc(-c3ccccc3-c3nn[nH]n3)cc2)c2ccccc2n1
– | 14 | 5.8 | – | – | CCc1nc(OCc2ccc(-c3ccccc3-c3nn[nH]n3)cc2)c2ccccc2n1
– | 74 | – | – | 125 | CCN(Cc1ccc(-c2ccccc2-n2ncnn2)cc1)c1nc2nc3ccccc3n2s1
– | 3.3 | 7 | – | – | CCc1nc(SCc2ccc(-c3ccccc3-c3nn[nH]n3)cc2)c2ccccc2n1
31 | 30 | – | – | – | CCCCN(Cc1ccccc1-c1ccccc1)c1nc2nc3ccccc3n2s1
12 | 32 | – | – | – | CCN(Cc1ccccc1)c1nc2nc3ccccc3n2s1
– | 8.6 | 11 | – | – | CCCc1nc(SCc2ccc(-c3ccccc3-c3nn[nH]n3)cc2)c2cc(C)cc(C)c2n1
– | 15 | 4.8 | – | – | Cc1nc(SCc2ccc(-c3ccccc3-c3nn[nH]n3)cc2)c2ccccc2n1
32 | – | – | 44 | – | CCCCN(Cc1ccccc1-n1ncnn1)c1nc2nc3ccccc3n2s1
0 | 90 | – | – | – | CCCCN(Cc1ccccc1)c1nc2nc3ccccc3n2s1
– | 3.8 | 2.4 | – | – | CC(C)c1nc(SCc2ccc(-c3ccccc3-c3nn[nH]n3)cc2)c2ccccc2n1
– | 7.6 | 16 | – | – | CCCCc1nc(NCc2ccc(-c3ccccc3-c3nn[nH]n3)cc2)c2ccccc2n1
– | – | – | – | 13 | CCCCc1nc(Cl)c(CO)n1Cc1ccc(-c2ccccc2-c2nnn[nH]2)cc1 [LOSARTAN]
